{
  "source": "patent US8017588B2",
  "about": "“Clarithromycin or salt thereof for use in the treatment or prevention of pulmonary disease induced by destruction of pulmonary alveoli” (Taisho Pharmaceutical Co., Ltd, priority 2005, dated 2011)",
  "key": {"[1]": {"experiment": "Plasma AUC after single administration to a normal human subject", "assay_type": "in vivo", "conditions": "200 mg singly administered, read-out: plasma AUC0-∞", "procedure": "(§1) Administration of clarithromycin was carried out orally at the rate of 25, 50 or 100 […] twice daily (morning and evening) during the tobacco smoke exposure period. The plasma AUC0-∞ of clarithromycin obtained when 50 mg/kg was singly administered to the mice was 2.677 μg·hr/ml while the plasma AUC0-∞ of clarithromycin obtained when 200 mg of clarithromycin was singly administered to a normal human subject was 8.98 μg·hr/ml. The former concentration was substantially lower than the latter one and was an adequate concentration to be used clinically."}, "[2]": {"tested_on": "macrophages and neutrophiles in bronchoalveolar lavage fluids", "experiment": "Cell counts of inflammatory cells in bronchoalveolar lavage fluids of model mice with tobacco smoke-induced pulmonary emphysema", "assay_type": "in vivo, C57black/6 female mice", "conditions": "after six months' exposure, 25, 50 or 100 mg/kg orally twice daily", "procedure": "The model mice with tobacco smoke-induced pulmonary emphysema mimicking human pulmonary emphysema were constructed according to the method as described in Hautamaki, R. D. et al., Science 1997, 277:2002-2004 or Shapiro, S. D. et al., Am. J. Pathol (2003) 163:2329-2335. Specifically, C57black/6 female mice of 12-weeks old were exposed to tobacco smoke at two cigarettes per day, 6 days per week for 6 months. Administration of clarithromycin was carried out orally at the rate of 25, 50 or 100 […] twice daily (morning and evening) during the tobacco smoke exposure period. The plasma AUC0-∞ of clarithromycin obtained when 50 mg/kg was singly administered to the mice was 2.677 μg·hr/ml while the plasma AUC0-∞ of clarithromycin obtained when 200 mg of clarithromycin was singly administered to a normal human subject was 8.98 μg·hr/ml. The former concentration was substantially lower than the latter one and was an adequate concentration to be used clinically. The cell counts of inflammatory cells (macrophages and neutrophiles) in the bronchoalveolar lavage fluids after six months' exposure were measured to provide an index of the inflammatory condition in the model mice with tobacco smoke-induced pulmonary emphysema. […]"}, "[3]": {"tested_on": "model mice with tobacco smoke-induced pulmonary emphysema", "experiment": "Pulmonary compliance in model mice with tobacco smoke-induced pulmonary emphysema", "assay_type": "in vivo, C57black/6 female mice", "conditions": "after six months' exposure; FIG. 2", "procedure": "The model mice with tobacco smoke-induced pulmonary emphysema mimicking human pulmonary emphysema were constructed according to the method as described in Hautamaki, R. D. et al., Science 1997, 277:2002-2004 or Shapiro, S. D. et al., Am. J. Pathol (2003) 163:2329-2335. Specifically, C57black/6 female mice of 12-weeks old were exposed to tobacco smoke at two cigarettes per day, 6 days per week for 6 months. Administration of clarithromycin was carried out orally at the rate of 25, 50 or 100 […] twice daily (morning and evening) during the tobacco smoke exposure period. The plasma AUC0-∞ of clarithromycin obtained when 50 mg/kg was singly administered to the mice was 2.677 μg·hr/ml while the plasma AUC0-∞ of clarithromycin obtained when 200 mg of clarithromycin was singly administered to a normal human subject was 8.98 μg·hr/ml. The former concentration was substantially lower than the latter one and was an adequate concentration to be used clinically. It has been reported that as pulmonary emphysema progresses, pulmonary functions deteriorate. It has also been known that the pulmonary compliance, which is an index of pulmonary functions, increases in model mice with tobacco smoke-induced pulmonary emphysema. Thus, the pulmonary compliance was measured in the model mice with tobacco smoke-induced pulmonary emphysema after six months' exposure."}, "[4]": {"experiment": "Plasma AUC after single administration to mice", "assay_type": "in vivo", "conditions": "C57black/6, mouse, oral, 50 mg/kg singly administered, read-out: plasma AUC0-∞", "procedure": "as §1"}},
  "data": [
    {"smiles": "CC[C@H]1OC(=O)[C@H](C)[C@@H](O[C@H]2C[C@@](C)(OC)[C@@H](O)[C@H](C)O2)[C@H](C)[C@@H](O[C@@H]2O[C@H](C)C[C@H](N(C)C)[C@H]2O)[C@](C)(OC)C[C@@H](C)C(=O)[C@H](C)[C@@H](O)[C@]1(C)O", "note": "[clarithromycin]", "values": [
      {"measurement": "AUC(0-inf)", "setting": "[1]", "result": 8980, "unit": "ng·h/mL"},
      {"measurement": "cell count of macrophages in bronchoalveolar lavage fluid", "setting": "[2]; FIG. 1A", "result": "reduced the cell counts of macrophages and neutrophiles in a dose-dependant manner"},
      {"measurement": "cell count of neutrophiles in bronchoalveolar lavage fluid", "setting": "[2]; FIG. 1B", "result": "reduced the cell counts of macrophages and neutrophiles in a dose-dependant manner"},
      {"measurement": "pulmonary compliance", "setting": "[3]", "result": "the pulmonary compliance recovered"},
      {"measurement": "AUC(0-inf)", "setting": "[4]", "result": 2680, "unit": "ng·h/mL"}
    ]}
  ]
}
